System: Vemurafenib-progressing melanoma tumors
Assay: Melanoma GEM model B-raf V600E; PTEN fl/fl; TyCreER, Vemurafenib-progressing tumors
Type: in vivo, mouse
Conditions: 2nd line after first line Vemurafenib; GDC-0973 7.5 mg/kg PO qd; anti-PDL1 10 mg/kg IP three times weekly
Description: A melanoma GEM model B-raf^V600E; PTEN^fl/fl; TyCreER was used.
Animals were enrolled into the study once their tumors reached a size greater than or equal to 400 mm^3.
Prior to beginning treatment, each mouse received a biopsy of a melanoma tumor. After the biopsy, mice were allowed to recover for up to one week prior to receiving treatment. Mice were assigned into initial treatment groups (n=20), and treatment commenced at day 0.
When animals in any group reached ˜2000 mm^3, the tumors were biopsied a second time. After the biopsy procedure, mice recovered for up to one week prior to receiving further therapeutic treatment.
Mice were weighed and tumors measured at least once a week until study termination. Mice received treatment each day until a mean tumor volume of 2500 mm^3 was achieved. Mice were then euthanized, and melanoma tumors were collected for histology and assessing molecular changes. Mice were perfused under anesthesia at euthanasia.
Throughout the study, mice were monitored for clinical appearance (body condition, coat appearance, posture, labored breathing, etc.) at least 2 times a week, with increasing frequency, up to daily, depending on severity of adverse clinical signs observed. Moribund animals were euthanized. Mice with a body condition score <2 were euthanized.

Q: With O=C(c1ccc(F)c(F)c1Nc1ccc(I)cc1F)N1CC(O)([C@@H]2CCCCN2)C1 [Cobimetinib, Methanone, [3,4-difluoro-2-[(2-fluoro-4-iodophenyl)amino]phenyl][3-hydroxy-3-(2S)-2-piperidinyl-1-azetidinyl]-] as the compound, how does the “effect on tumor growth (percent tumor volume change over time, FIG. 1)” value read?
A: Its value is “initial tumor regression, but this response was not sustained and tumor re-growth was observed”.

Reference: US10946093B2, “Methods of treating cancer using PD-1 axis binding antagonists and MEK inhibitors” (Genentech, Inc., priority 2014, dated 2021)
